Measured values from US8921368B2, “Pyrrolopyridazine JAK3 inhibitors and their use for the treatment of inflammatory and autoimmune diseases” (Bristol-Myers Squibb Company, priority 2011, dated 2014).

Legend:
JAK3 = JAK3 (Homo sapiens (Human), UniProt P52333); test: JAK3 Kinase Assay (Caliper / Filter protocols); format: biochemical; conditions: JAK3 kinase inhibition; ATP 8 μM; read-out: LLE_JAK3_FB (IC50)
Protocol: JAK3 Kinase Assay Protocol (Caliper)
The assay reactions were performed in U-bottom 384-well plates. […] The reaction was initiated by the combination of GST-JAK3 enzyme with substrates and test compounds. The reactions were incubated at room temperature for 3 hours and terminated by adding 60 μl of 35 mM EDTA to each sample. […] Compounds were dissolved at 10 mM in dimethylsulfoxide (DMSO) and evaluated at eleven concentrations. IC50 values were derived by non-linear regression analysis.
JAK3 Kinase Assay Protocol (Filter)
Kinase reactions consisted of 5 ng of JAK3 enzyme, 30 uM CSKtide substrate, 0.2 μCi ^33P γ-ATP, 8 μM ATP in 30 μl kinase buffer (50 mM Hepes, pH 8.0, 10 mM MgCl2, 1 mM EGTA, 2 mM DTT). Reactions were incubated for 30 minutes at room temperature and stopped by the addition of cold trichloroacetic acid (TCA) to a final concentration of 15%. TCA precipitates were collected onto 384 well phosphocellulose filters (Millipore) using a Platemate to transfer the reaction mixture, washed on an EMBLA plate washer and the filters were quantitated using a TopCount 384-well liquid scintillation counter. […] Compounds were dissolved at 10 mM in dimethylsulfoxide (DMSO) and evaluated at six concentrations, each in triplicate. The final concentration of DMSO in the assay equaled 2%. IC50 values were derived by non-linear regression analysis.

JAK1 = JAK1 (Homo sapiens (Human), UniProt P23458); test: JAK1 Kinase Assay Protocol; format: biochemical; conditions: GST-JAK1; ATP 100 μM; Caliper LabChip; read-out: LLE_JAK1 (IC50)
Protocol: JAK1 Kinase Assay Protocol
The assay reactions were performed in U-bottom 384-well plates. The final assay volume was 30 μl prepared from 15 μl additions of enzyme and substrates (fluoresceinated peptide and ATP) and test compounds in assay buffer (20 mM HEPES pH 7.4, 10 mM MgCl2, 25 mM beta-glycerol phosphate, 0.015% Brij35 and 4 mM DTT). The reaction was initiated by the combination of GST-JAK1 enzyme with substrates and test compounds. The reactions were incubated at room temperature for 3 hours and terminated by adding 60 μl of 35 mM EDTA to each sample. […] The final concentration of reagents in the assays was: ATP, 100 μM; fluoresceinated peptide, 1.5 μM; GST-JAK1, 12.5 nM; and DMSO, 1.6%. […] Compounds were dissolved at 10 mM in dimethylsulfoxide (DMSO) and evaluated at eleven concentrations. IC50 values were derived by non-linear regression analysis.

Chain of JAK3 (P52333 whole entry): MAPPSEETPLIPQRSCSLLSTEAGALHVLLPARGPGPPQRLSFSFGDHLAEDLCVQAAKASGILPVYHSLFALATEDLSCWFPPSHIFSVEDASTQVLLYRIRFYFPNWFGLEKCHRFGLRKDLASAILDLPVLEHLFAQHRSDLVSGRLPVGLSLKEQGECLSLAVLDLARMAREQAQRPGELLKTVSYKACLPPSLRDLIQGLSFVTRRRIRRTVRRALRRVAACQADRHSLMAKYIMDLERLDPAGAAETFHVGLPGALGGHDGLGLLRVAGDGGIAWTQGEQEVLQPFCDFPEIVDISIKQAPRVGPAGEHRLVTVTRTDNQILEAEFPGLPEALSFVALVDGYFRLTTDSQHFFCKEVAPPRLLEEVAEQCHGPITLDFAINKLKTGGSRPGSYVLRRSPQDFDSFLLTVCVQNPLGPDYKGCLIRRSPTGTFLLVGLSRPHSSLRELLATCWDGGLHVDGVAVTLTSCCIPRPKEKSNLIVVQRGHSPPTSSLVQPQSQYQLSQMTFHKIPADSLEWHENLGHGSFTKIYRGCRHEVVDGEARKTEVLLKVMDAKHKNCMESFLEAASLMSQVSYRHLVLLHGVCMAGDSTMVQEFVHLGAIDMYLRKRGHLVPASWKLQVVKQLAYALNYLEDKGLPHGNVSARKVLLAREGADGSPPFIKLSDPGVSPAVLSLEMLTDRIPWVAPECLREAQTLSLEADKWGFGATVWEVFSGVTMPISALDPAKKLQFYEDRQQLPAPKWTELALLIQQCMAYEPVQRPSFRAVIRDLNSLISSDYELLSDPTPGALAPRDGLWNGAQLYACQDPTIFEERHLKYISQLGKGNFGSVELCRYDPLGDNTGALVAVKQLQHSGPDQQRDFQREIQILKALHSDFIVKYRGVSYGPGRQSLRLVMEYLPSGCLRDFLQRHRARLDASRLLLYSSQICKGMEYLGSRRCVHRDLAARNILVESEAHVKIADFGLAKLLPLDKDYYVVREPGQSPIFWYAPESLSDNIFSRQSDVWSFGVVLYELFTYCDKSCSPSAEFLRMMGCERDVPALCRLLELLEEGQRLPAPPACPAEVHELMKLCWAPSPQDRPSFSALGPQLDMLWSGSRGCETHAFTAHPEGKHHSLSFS
Chain of JAK1 (P23458 whole entry): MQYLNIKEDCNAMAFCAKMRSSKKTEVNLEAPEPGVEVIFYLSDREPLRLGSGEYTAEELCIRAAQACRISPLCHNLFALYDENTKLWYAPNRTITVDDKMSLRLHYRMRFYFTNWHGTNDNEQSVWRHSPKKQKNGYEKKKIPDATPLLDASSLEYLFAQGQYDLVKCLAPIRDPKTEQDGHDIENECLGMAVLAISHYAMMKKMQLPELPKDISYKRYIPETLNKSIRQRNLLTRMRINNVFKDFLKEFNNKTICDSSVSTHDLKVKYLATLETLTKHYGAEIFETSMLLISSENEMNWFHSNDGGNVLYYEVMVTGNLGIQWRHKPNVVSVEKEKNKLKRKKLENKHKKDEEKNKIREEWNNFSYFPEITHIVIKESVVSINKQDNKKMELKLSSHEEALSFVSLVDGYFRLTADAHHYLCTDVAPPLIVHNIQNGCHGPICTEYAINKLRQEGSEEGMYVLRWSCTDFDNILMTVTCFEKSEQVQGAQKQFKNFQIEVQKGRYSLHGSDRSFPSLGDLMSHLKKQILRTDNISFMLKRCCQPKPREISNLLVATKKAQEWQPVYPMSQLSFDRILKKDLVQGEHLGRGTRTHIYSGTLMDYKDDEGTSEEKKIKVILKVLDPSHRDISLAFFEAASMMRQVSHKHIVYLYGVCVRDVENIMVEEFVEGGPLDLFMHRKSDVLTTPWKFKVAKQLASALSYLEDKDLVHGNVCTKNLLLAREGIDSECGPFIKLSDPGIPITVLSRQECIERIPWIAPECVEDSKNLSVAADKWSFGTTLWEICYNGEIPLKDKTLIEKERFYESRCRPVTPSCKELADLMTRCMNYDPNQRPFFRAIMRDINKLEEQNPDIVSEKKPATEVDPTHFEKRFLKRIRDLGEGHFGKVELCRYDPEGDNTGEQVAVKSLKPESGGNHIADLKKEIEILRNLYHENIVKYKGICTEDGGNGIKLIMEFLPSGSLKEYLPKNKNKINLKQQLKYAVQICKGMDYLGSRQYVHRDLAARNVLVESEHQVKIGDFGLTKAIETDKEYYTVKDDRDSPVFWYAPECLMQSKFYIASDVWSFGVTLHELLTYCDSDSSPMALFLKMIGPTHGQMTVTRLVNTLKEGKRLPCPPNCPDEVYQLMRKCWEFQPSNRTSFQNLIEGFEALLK

Structure (SMILES)	IC50 (JAK3)	IC50 (JAK1)
COc1ccc(-c2cc3c(N[C@@H]4CC[C@](C)(NS(C)(=O)=O)C4(C)C)c(C(N)=O)cnn3c2)cn1 [Example 336, 6-(6-methoxy-3-pyridinyl)-4-(((1R,3S)-2,2,3-trimethyl-3-((methylsulfonyl)amino)cyclopentyl)amino)pyrrolo[1,2-b]pyridazine-3-carboxamide]	1.7 nM	4.3 nM
CC1(C)[C@H](Nc2c(C(N)=O)cnn3cc(-c4ccccc4)cc23)CC[C@]1(C)C(N)=O [Example 337, 4-((1R,3S)-3-carbamoyl-2,2,3-trimethylcyclopentylamino)-6-phenylpyrrolo[1,2-b]pyridazine-3-carboxamide]	0.4 nM	1.4 nM
COc1ccc(-c2cc3c(N[C@@H]4CC[C@](C)(C(N)=O)C4(C)C)c(C(N)=O)cnn3c2)cn1 [Example 338, 4-((1R,3S)-3-carbamoyl-2,2,3-trimethylcyclopentylamino)-6-(6-methoxypyridin-3-yl)pyrrolo[1,2-b]pyridazine-3-carboxamide]	0.3 nM	1.2 nM
CC1(C)[C@H](Nc2c(C(N)=O)cnn3cc(-c4ccc(F)nc4)cc23)CC[C@]1(C)C(N)=O [Example 339, 4-(((1R,3S)-3-carbamoyl-2,2,3-trimethylcyclopentyl)amino)-6-(6-fluoropyridin-3-yl)pyrrolo[1,2-b]pyridazine-3-carboxamide]	1.9 nM	2.2 nM
